From publication PMC10744032, “Regioselective and Stereoselective Synthesis of Parthenolide Analogs by Acyl Nitroso-Ene Reaction and Their Biological Evaluation against Mycobacterium tuberculosis” (International Journal of Molecular Sciences, 2023)
Values after ≈ are worked out from the molar mass of the structure shown. Like-named read-outs stand apart in the source and are kept apart here.

Tests used:
[1] = Cytotoxicity by live imaging (Hoechst 33342 / propidium iodide); format: cell-based; conditions: mouse
Protocol: The cytotoxicity of the compounds to BALB/3T3 cells was determined using live imaging following both Hoechst 33342 and propidium iodide staining. Briefly, BALB/3T3 cells were seeded in a 384-well plate and 24 h later, the compounds were added (0, 12.5, 25, 50, and 100 µM) to the culture medium, as well as Hoechst 33342 and propidium iodide (PI). Then, 24 h and 48 h after the compounds were added, live imaging was performed using an In Cell Analyzer 6000 (STP GE Healthcare, Glascow, UK). The cytotoxicity was defined based on the ratio of the population of dead or dying cells (propidium iodide staining) to the total cell population (Hoechst staining), as determined using Columbus software 2.9.1 (PerkinElmer Informatics, WA, USA). The compounds were tested in triplicate. Carfilzomib (500, 250, 140, and 60 nM) was used as the positive control in this assay.

[2] = tested on: M. tuberculosis H37Rv expressing GFP (H37Rv::pJKD6); assay: microbe, parasite or virus in culture; format: cell-based, Mycobacterium tuberculosis; conditions: Mycobacterium tuberculosis, H37RV, 168 h; read-out: MIC98 M. tuberculosis (GFP)
[3] = tested on: Staphylococcus aureus (SH1000); assay: microbe, parasite or virus in culture; format: cell-based; conditions: Staphylococcus aureus; 5 h incubation, resazurin readout; tested 300 to 2.3 µM; read-out: MIC90 S. aureus (REMA)
[4] = tested on: M. tuberculosis H37Rv; assay: microbe, parasite or virus in culture; format: cell-based, Mycobacterium tuberculosis; conditions: Mycobacterium tuberculosis, H37RV, 168 h, 7 days incubation, resazurin readout, tested 300 to 2.3 µM, read-out: MIC90 M. tuberculosis (REMA)
[5] = Kinetic solubility in PBS by LC-MS/MS; format: physicochemical; conditions: for solubility at 24 h: kinetic from dmso stock; for fold higher solubility in PBS compared to parthenolide: relative to parthenolide
Protocol: The kinetic solubility was determined using LC–MS/MS analysis in PBS at pH 7.4. Briefly, a 10 mM 100% DMSO solution of the compound was diluted 50-fold either in PBS at pH 7.4 (in triplicate) or in DMSO in polypropylene tubes (n = 3 for PBS and n = 6 for DMSO). The tubes were gently shaken for 24 h at 21 °C. Then, the three PBS tubes and three of the six DMSO tubes were centrifuged for 5 min at 4000 rpm and filtered over 0.45 μm filters (Millex-LH Millipore). Then, 40 μL of each solution was diluted in 160 μL of MeCN and 40 µL of Milli-Q water and transferred to matrix tubes for the LC–MS/MS analysis. The solubility was determined according to the following formula: Solubility (μM) = (AUC (filtered PBS)/AUC (not filtered DMSO)) × 200. The test was validated if (AUC (not filtered DMSO) − AUC (filtered DMSO))/AUC (not filtered DMSO) ≤ 10%.

[6] = BALB/3T3 cells, 0, 12.5, 25, 50, 100 µM, imaging at 24 h and 48 h, read-out: Cytotoxicity Balb3T3 CC50
[7] = aqueous buffer, kinetic solubility, PBS pH 7.4, 24 h at 21 °C, from 10 mM DMSO solution diluted 50-fold, read-out: Solubility

Compound | CC50 [1] [µM] | MIC [2] [µM] | MIC90 [3] [µM] | MIC90 [4] [µM] | solubility at 24 h ([5]; 21 °C, pH 7.4, aqueous buffer) [µM] | fold higher solubility in PBS compared to parthenolide [5] [fold] | CC50 [1, 6] [µM] | solubility at 24 h [5, 7] [µM]
C=C1CC[C@H]2C(=C)C(=O)O[C@@H]2[C@@H]2O[C@]2(C)CC[C@H]1N(O)C(=O)Nc1ccccc1 [Compound 4, 1-hydroxy-1-[(1S,2S,4R,7R,11S)-4-methyl-8,12-dimethylene-13-oxo-3,14-dioxatricyclo[9.3.0.02,4]tetradecan-7-yl]-3-phenyl-urea] | 25 | 9.4 to 19 (≈ 3.75 to 7.57 µg/mL) | > 300 | 19 to 38 (≈ 7.57 to 15.1 µg/mL) | 186 (≈ 74.1 µg/mL) | – | – | –
C=C1CC[C@H]2C(=C)C(=O)O[C@@H]2[C@@H]2O[C@]2(C)CC[C@H]1N(O)C(=O)Nc1ccc(C)cc1 [Compound 5, 1-hydroxy-1-[(1S,2S,4R,7R,11S)-4-methyl-8,12-dimethylene-13-oxo-3,14-dioxatricyclo[9.3.0.02,4]tetradecan-7-yl]-3-(p-tolyl)urea] | 12.5 | 19 (≈ 7.84 µg/mL) | > 300 | 19 to 38 (≈ 7.84 to 15.7 µg/mL) | 186 (≈ 76.7 µg/mL) | – | – | –
C=C1CC[C@H]2C(=C)C(=O)O[C@@H]2[C@@H]2O[C@]2(C)CC[C@H]1N(O)C(=O)NCc1ccccc1 [Compound 6, 3-benzyl-1-hydroxy-1-[(1S,2S,4R,7R,11S)-4-methyl-8,12-dimethylene-13-oxo-3,14-dioxatricyclo [9.3.0.02,4]tetradecan-7-yl]urea] | > 25 | 19 to 38 (≈ 7.84 to 15.7 µg/mL) | > 300 | 38 to 75 (≈ 15.7 to 30.9 µg/mL) | 196 (≈ 80.8 µg/mL) | – | – | –
C=C1CC[C@H]2C(=C)C(=O)O[C@@H]2[C@@H]2O[C@]2(C)CC[C@H]1N(O)C(=O)Nc1ccc(OC)cc1 [Compound 7, 1-hydroxy-3-(4-methoxyphenyl)-1-[(1S,2S,4R,7R,11S)-4-methyl-8,12-dimethylene-13-oxo-3,14-dioxatricyclo[9.3.0.02,4]tetradecan-7-yl]urea] | 25 | 19 (≈ 8.14 µg/mL) | – | 19 (≈ 8.14 µg/mL) | 184 (≈ 78.8 µg/mL) | – | – | –
C=C1CC[C@H]2C(=C)C(=O)O[C@@H]2[C@@H]2O[C@]2(C)CC[C@H]1N(O)C(=O)Nc1ccc(F)cc1 [Compound 8, 3-(4-fluorophenyl)-1-hydroxy-1-[(1S,2S,4R,7R,11S)-4-methyl-8,12-dimethylene-13-oxo-3,14-dioxatricyclo[9.3.0.02,4]tetradecan-7-yl]urea] | > 25 | 19 (≈ 7.91 µg/mL) | – | 19 (≈ 7.91 µg/mL) | 188 (≈ 78.3 µg/mL) | 1.3 | – | –
C=C1CC[C@H]2C(=C)C(=O)O[C@@H]2[C@@H]2O[C@]2(C)CC[C@H]1N(O)C(N)=O [Compound 9, 1-hydroxy-1-[(1S,2S,4R,7R,11S)-4-methyl-8,12-dimethylene-13-oxo-3,14-dioxatricyclo[9.3.0.02,4]tetradecan-7-yl]urea] | > 100 | 75 to 150 (≈ 24.2 to 48.4 µg/mL) | – | ~150 (≈ 48.4 µg/mL) | > 200 | 1.5 | – | –
C=C1CC[C@H]2C(=C)C(=O)O[C@@H]2[C@@H]2O[C@]2(C)CC[C@H]1N(O)C(=O)Nc1ccc2c(c1)OCO2 [Compound 10, 3-(1,3-benzodioxol-5-yl)-1-hydroxy-1-[(1S,2S,4R,7R,11S)-4-methyl-8,12-dimethylene-13-oxo-3,14-dioxatricyclo[9.3.0.02,4]tetradecan-7-yl]urea] | 12.5 | 19 (≈ 8.41 µg/mL) | – | 38 (≈ 16.8 µg/mL) | 182 (≈ 80.5 µg/mL) | – | – | –
C=C1CC[C@H]2C(=C)C(=O)O[C@@H]2[C@@H]2O[C@]2(C)CC[C@H]1N(O)C(=O)NCCCOCC [Compound 11, 3-(3-ethoxypropyl)-1-hydroxy-1-[(1S,2S,4R,7R,11S)-4-methyl-8,12-dimethylene-13-oxo-3,14-dioxatricyclo[9.3.0.02,4]tetradecan-7-yl]urea] | > 100 | 150 (≈ 61.3 µg/mL) | – | 150 (≈ 61.3 µg/mL) | 197 (≈ 80.5 µg/mL) | – | – | –
C=CCOC(=O)N(O)[C@@H]1CC[C@@]2(C)O[C@H]2[C@H]2OC(=O)C(=C)[C@@H]2CCC1=C [Compound 13, Allyl-N-hydroxy-N-[(1S,2S,4R,7R,11S)-4-methyl-8,12-dimethylene-13-oxo-3,14-dioxatricyclo [9.3.0.02,4]tetradecan-7-yl]carbamate] | > 12.5 | 38 (≈ 13.8 µg/mL) | > 300 | 38 to 75 (≈ 13.8 to 27.3 µg/mL) | 192 (≈ 69.8 µg/mL) | – | – | –
C=C1CC[C@H]2C(=C)C(=O)O[C@@H]2[C@@H]2O[C@]2(C)CC[C@H]1N(O)C(=O)OCc1ccccc1 [Compound 14, Benzyl-N-hydroxy-N-[(1S,2S,4R,7R,11S)-4-methyl-8,12-dimethylene-13-oxo-3,14-dioxatricyclo[9.3.0.02,4]tetradecan-7-yl]carbamate] | > 12.5 | 38 (≈ 15.7 µg/mL) | > 300 | 75 (≈ 31 µg/mL) | 191 (≈ 79 µg/mL) | – | – | –
C=C1CC[C@H]2C(=C)C(=O)O[C@@H]2[C@@H]2O[C@]2(C)CC[C@H]1N(O)C(=O)Oc1ccccc1 [Compound 17, Phenyl-N-hydroxy-N-[(1S,2S,4R,7R,11S)-4-methyl-8,12-dimethylene-13-oxo-3,14-dioxatricyclo[9.3.0.02,4]tetradecan-7-yl]carbamate] | – | 38 (≈ 15.2 µg/mL) | – | 38 (≈ 15.2 µg/mL) | – | – | 12.5 | 189 (≈ 75.5 µg/mL)
C=C1CC[C@H]2C(=C)C(=O)O[C@@H]2[C@@H]2O[C@]2(C)CC[C@H]1N(O)C(=O)OCC(C)C [Compound 18, Isobutyl-N-hydroxy-N-[(1S,2S,4R,7R,11S)-4-methyl-8,12-dimethylene-13-oxo-3,14-dioxatricyclo[9.3.0.02,4]tetradecan-7-yl]carbamate] | 50 | 19 (≈ 7.21 µg/mL) | – | 38 (≈ 14.4 µg/mL) | 190 (≈ 72.1 µg/mL) | – | – | –
C=C1CC[C@H]2C(=C)C(=O)O[C@@H]2[C@@H]2O[C@]2(C)CC[C@H]1N(O)C(=O)OCC [Compound 19, Ethyl-N-hydroxy-N-[(1S,2S,4R,7R,11S)-4-methyl-8,12-dimethylene-13-oxo-3,14-dioxatricyclo[9.3.0.02,4]tetradecan-7-yl]carbamate] | > 12.5 | 75 (≈ 26.4 µg/mL) | – | 75 (≈ 26.4 µg/mL) | 198 (≈ 69.6 µg/mL) | – | – | –
C=C1CC[C@H]2C(=C)C(=O)O[C@@H]2[C@@H]2O[C@]2(C)CC[C@H]1N(O)C(=O)Oc1ccc2c(c1)OCO2 [Compound 20, 1,3-benzodioxol-5-yl-N-hydroxy-N-[(1S,2S,4R,7R,11S)-4-methyl-8,12-dimethylene-13-oxo-3,14-dioxatricyclo[9.3.0.02,4]tetradecan-7-yl]carbamate] | – | 37.5 to 75 (≈ 16.6 to 33.3 µg/mL) | – | 75 (≈ 33.3 µg/mL) | – | – | > 12.5 | 182 (≈ 80.7 µg/mL)
C=C1CC[C@H]2C(=C)C(=O)O[C@@H]2[C@@H]2O[C@]2(C)CC[C@H]1N(O)C(=O)OCCOC [Compound 21, 2-methoxyethyl-N-hydroxy-N-[(1S,2S,4R,7R,11S)-4-methyl-8,12-dimethylene-13-oxo-3,14-dioxatricyclo[9.3.0.02,4]tetradecan-7-yl]carbamate] | 100 | 150 to 300 (≈ 57.2 to 114 µg/mL) | – | 150 (≈ 57.2 µg/mL) | > 200 | – | – | –
C=C1CC[C@H]2C(=C)C(=O)O[C@@H]2[C@@H]2O[C@]2(C)CC[C@H]1N(O)C(=O)OC1CCOCC1 [Compound 22, Tetrahydropyran-4-yl-N-hydroxy-N-[(1S,2S,4R,7R,11S)-4-methyl-8,12-dimethylene-13-oxo-3,14-dioxatricyclo[9.3.0.02,4]tetradecan-7-yl]carbamate] | > 50 | 38 (≈ 15.5 µg/mL) | – | 75 (≈ 30.6 µg/mL) | 193 (≈ 78.6 µg/mL) | – | – | –
C=C1CC[C@H]2C(=C)C(=O)O[C@@H]2[C@@H]2O[C@]2(C)CC/C1=N/O [Compound 23, (1S,2S,4R,7Z,11S)-7-hydroxyimino-4-methyl-8,12-dimethylene-3,14-dioxatricyclo[9.3.0.02,4] tetradecan-13-one] | – | – | > 300 | – | 186 (≈ 51.6 µg/mL) | – | – | –
C/C1=C\CC[C@@]2(C)O[C@H]2[C@H]2OC(=O)C(C)[C@@H]2CC1 (stereo partly drawn) [Compound 26, (1S,2S,4R,7E,11S)-4,8,12-trimethyl-3,14-dioxatricyclo[9.3.0.02,4]tetradec-7-en-13-one] | – | 300 (≈ 75.1 µg/mL) | – | 300 (≈ 75.1 µg/mL) | – | – | – | –
CO[C@H]1/C=C/O[C@@]2(C)Oc3c(C)c(O)c4c(O)c(c(/C=N/N5CCN(C)CC5)c(O)c4c3C2=O)NC(=O)/C(C)=C\C=C\[C@H](C)[C@H](O)[C@@H](C)[C@@H](O)[C@@H](C)[C@H](OC(C)=O)[C@@H]1C [Rifampicin, reference compound] | – | < 2.3 | < 2.3 | < 2.3 | – | – | – | –
